Columns and labels:
Assay type in all cases: in vivo
[1] = system: Argentine ants, Linepithema humile; assay: whole plant or invertebrate; conditions: for mortality at 1 % strength: Linepithema humile, 144 h, read-out: Mean cumulative % mortality 6 days after treatment
Procedure: • a) The tests were conducted in petri dishes. Ants were given a water source and then were starved of a food source for 24 hours. Baits were prepared with 20% honey/water solution. A solution of the active ingredient in acetone was added to reach a concentration of the active ingredient of 1% by weight (w/w). 0.2 ml of the active ingredient containing honey/water solution, placed in a cap, was added to each dish. The dishes were covered and maintained at a water temperature of 22° C. […]
b) The tests were conducted as in example a). The following compounds I and II according to EP 33984 were used as comparative examples.

[2] = system: Green Peach Aphid (Myzus persicae); assay: Green Peach Aphid leaf-dip test on pepper plants; conditions: foliar, 120 h, after 5 days, read-out: mortality in comparison with untreated controls
Procedure: (§1) The active compounds were formulated in 50:50 acetone:water and 100 ppm Kinetic® surfactant.
Pepper plants in the 2nd leaf-pair stage (variety ‘California Wonder’) were infested with approximately 40 laboratory-reared aphids by placing infested leaf sections on top of the test plants. The leaf sections were removed after 24 hr. The leaves of the intact plants were dipped into gradient solutions of the test compound and allowed to dry. Test plants were maintained under fluorescent light (24 hour photoperiod) at about 25° C. and 20-40% relative humidity. Aphid mortality on the treated plants, relative to mortality on check plants, was determined after 5 days.

[3] = system: Cotton Aphid (Aphis gossypii); assay: Cotton Aphid cotyledon-dip test on cotton plants; conditions: 120 h, after 5 days, read-out: mortality in comparison with untreated controls
Text: as §1
Cotton plants in the cotyledon stage (variety ‘Delta Pine’, one plant per pot) were infested by placing a heavily infested leaf from the main colony on top of each cotyledons. The aphids were allowed to transfer to the host plant overnight, and the leaf used to transfer the aphids were removed. The cotyledons were dipped in the test solution and allowed to dry. After 5 days, mortality counts were made.

SMILES	mortality compared to untreated controls ([1]; in vivo)	mortality at 300 ppm [2]	other results
CCNS(=O)(=O)c1cccc(OC(F)F)c1C#N [Compound 66]	100%	–	Mean cumulative % mortality 6 days after treatment ([1]; in vivo): 100.0%
CCNS(=O)(=O)c1ccc(Cl)c(C)c1C#N [Compound 3, Ethyl-(4-chloro-2-cyano-3-methyl-phenyl)sulfonamide]	–	> 85%	mortality at 300 ppm [3]: > 85%
CCCNS(=O)(=O)c1cccc(C)c1C#N [Compound 1, n-Propyl-(2-cyano-3-methyl-phenyl)sulfonamide]	–	> 85%	–
C#CCNS(=O)(=O)c1cccc(OC(F)F)c1C#N [Compound 79]	100%	–	–
CCNS(=O)(=O)c1cccc(Cl)c1C#N [Comparative Example II, reference compound]	–	–	mortality at 1 % strength [1]: 35.6%
CCN(CC)S(=O)(=O)c1cccc(Cl)c1C#N [Comparative Example I, reference compound]	–	–	mortality at 1 % strength [1]: 35.6%
CNS(=O)(=O)c1cccc(OC)c1C#N [Compound 2, Methyl-(2-cyano-3-methoxy-phenyl)sulfonamide]	–	> 85%	mortality at 300 ppm [3]: > 85%
N#Cc1c(OC(F)F)cccc1S(N)(=O)=O [Compound 78]	100%	–	–
